In PubChem BioAssay AID248 (DTP/NCI, 2004):
Values joined by “and” are separate entries in the source; they are usually repeats but may differ in a detail not shown here. Equal values may be shown once. Inconclusive results and toxic doses are left out.

Test system: L1210 leukemia ip in BDF1 mice, survival T/C
Experiment: NCI In Vivo Anticancer Drug Screen. Data for tumor model L1210 Leukemia (intraperitoneal) in B6D2F1 (BDF1) mice
Details: endpoint: mean survival time, higher = longer survival
How it was run: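 Tumor cells were implanted, animals were treated, and survival was followed. The result divides the treated measurement by the vehicle-control measurement.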

[1] = dose: 50.0 mg/kg/injection, schedule: Q01DX009 (ip), vehicle: saline
[2] = dose: 100.0 mg/kg/injection, schedule: Q01DX009 (ip), vehicle: saline
[3] = dose: 100.0 mg/kg/injection, schedule: Q04DX003 (ip), vehicle: saline
[4] = dose: 200.0 mg/kg/injection, schedule: Q01DX009 (ip), vehicle: saline
[5] = dose: 200.0 mg/kg/injection, schedule: Q04DX003 (ip), vehicle: saline
[6] = dose: 400.0 mg/kg/injection, schedule: Q04DX003 (ip), vehicle: saline
[7] = dose: 100.0 mg/kg/injection, schedule: Q04DX002 (ip), vehicle: Klucel (hydroxypropylcellulose) (HPC)
[8] = dose: 200.0 mg/kg/injection, schedule: Q04DX002 (ip), vehicle: Klucel (hydroxypropylcellulose) (HPC)
[9] = dose: 400.0 mg/kg/injection, schedule: Q04DX002 (ip), vehicle: Klucel (hydroxypropylcellulose) (HPC)
[10] = dose: 100.0 mg/kg/injection, schedule: Q04DX002 (ip), vehicle: saline with Tween-80
[11] = dose: 200.0 mg/kg/injection, schedule: Q04DX002 (ip), vehicle: saline with Tween-80
[12] = dose: 400.0 mg/kg/injection, schedule: Q04DX002 (ip), vehicle: saline with Tween-80
[13] = dose: 100.0 mg/kg/injection, schedule: Q01DX009 (ip), vehicle: Klucel (hydroxypropylcellulose) (HPC)
[14] = dose: 200.0 mg/kg/injection, schedule: Q01DX009 (ip), vehicle: Klucel (hydroxypropylcellulose) (HPC)
[15] = dose: 400.0 mg/kg/injection, schedule: Q01DX009 (ip), vehicle: Klucel (hydroxypropylcellulose) (HPC)

NCCc1cc(O)c(O)c(S(=O)(=O)c2ccc(N)cc2)c1
T/C (dose: 75.0 mg/kg/injection, schedule: Q01DX009 (ip), vehicle: saline): 107 % of control
T/C (dose: 150.0 mg/kg/injection, schedule: Q01DX009 (ip), vehicle: saline): 105 % of control

CC1(C)N=C(N)N=C(N)N1c1ccc(CNC(=O)Nc2cccc(S(=O)(=O)F)c2)cc1
T/C (dose: 6.25 mg/kg/injection, schedule: Q01DX009 (ip), vehicle: saline): 116 % of control
T/C (dose: 12.5 mg/kg/injection, schedule: Q01DX009 (ip), vehicle: saline): 119 % of control
T/C [1]: 154 % of control
T/C (dose: 88.0 mg/kg/injection, schedule: Q04DX003 (ip), vehicle: saline): 113 % of control

COC(=O)C(N)CSCSC (configuration not stated)
T/C [2]: 107 % of control
T/C [3]: 103 % of control
T/C [4]: 101 % of control
T/C [5]: 105 % of control
T/C (dose: 400.0 mg/kg/injection, schedule: Q01DX009 (ip), vehicle: saline): 101 % of control
T/C [6]: 97 % of control

CC(=O)Nc1ccc(NC(=O)Nc2ccc(F)cc2)cc1
T/C [7]: 108 % of control
T/C [8]: 118 % of control
T/C [9]: 105 % of control

CCOC(=O)CCc1[nH]c2nnc(C)cc2c1[N+](=O)[O-]
T/C (dose: 56.3 mg/kg/injection, schedule: Q04DX002 (ip), vehicle: Klucel (hydroxypropylcellulose) (HPC)): 100 % of control
T/C (dose: 112.5 mg/kg/injection, schedule: Q04DX002 (ip), vehicle: Klucel (hydroxypropylcellulose) (HPC)): 106 % of control
T/C (dose: 225.0 mg/kg/injection, schedule: Q04DX002 (ip), vehicle: Klucel (hydroxypropylcellulose) (HPC)): 91 % of control

N#Cc1ccc(-c2nc3ncnc(N)c3[nH]2)cc1
T/C [7]: 97 % of control
T/C [8]: 105 % of control
T/C [9]: 101 % of control

O=C(O)C1CCC(C(=O)O)NC1 (configuration not stated)
T/C [3]: 106 % of control
T/C [5]: 102 % of control
T/C [6]: 101 % of control

CC(C)OC(=S)SCC(=O)c1ccc(-c2ccccc2)cc1
T/C [7]: 96 % of control
T/C [8]: 92 % of control
T/C [9]: 96 % of control

CCC1OC(C)CC(C)(C)O1 (configuration not stated)
T/C [1]: 96 % of control
T/C [2]: 101 % of control
T/C [10]: 93 % of control
T/C (dose: 100.0 mg/kg/injection, schedule: Q04DX003 (ip), vehicle: acetone): 118 % of control
T/C [4]: 96 % of control
T/C [11]: 97 % of control
T/C (dose: 200.0 mg/kg/injection, schedule: Q04DX003 (ip), vehicle: acetone): 120 % of control
T/C [12]: 101 % of control
T/C (dose: 400.0 mg/kg/injection, schedule: Q04DX003 (ip), vehicle: acetone): 101 % of control

O=C(Cc1ccccc1)NCc1ccc(Cl)cc1
T/C [10]: 96 % of control
T/C [11]: 101 % of control
T/C [12]: 114 % of control

c1ccc(CCSc2ncnc3nc[nH]c23)cc1
T/C (dose: 31.3 mg/kg/injection, schedule: Q01DX Z (ip), vehicle: saline): 94 % of control
T/C (dose: 62.5 mg/kg/injection, schedule: Q01DX Z (ip), vehicle: saline): 94 % of control
T/C [2]: 122 % of control
T/C (dose: 125.0 mg/kg/injection, schedule: Q01DX Z (ip), vehicle: saline): 97 % of control
T/C (dose: 175.0 mg/kg/injection, schedule: Q01DX001 (ip), vehicle: saline): 100 % of control
T/C (dose: 250.0 mg/kg/injection, schedule: Q01DX Z (ip), vehicle: saline): 100 % of control and 101 % of control
T/C (dose: 265.0 mg/kg/injection, schedule: Q01DX001 (ip), vehicle: saline): 93 % of control
T/C (dose: 340.0 mg/kg/injection, schedule: Q01DX009 (ip), vehicle: saline): 159 % of control
T/C (dose: 400.0 mg/kg/injection, schedule: Q01DX001 (ip), vehicle: saline): 108 % of control
T/C (dose: 500.0 mg/kg/injection, schedule: Q01DX Z (ip), vehicle: saline): 111 % of control
T/C (dose: 600.0 mg/kg/injection, schedule: Q01DX001 (ip), vehicle: saline): 101 % of control
T/C (dose: 1000.0 mg/kg/injection, schedule: Q01DX Z (ip), vehicle: saline): 117 % of control

O=C1OC2CCCCC2OC1=O (configuration not stated)
T/C (dose: 100.0 mg/kg/injection, schedule: Q01DX001 (ip), vehicle: saline): 101 % of control
T/C (dose: 200.0 mg/kg/injection, schedule: Q01DX001 (ip), vehicle: saline): 101 % of control

COC(=O)c1ccc(OC(=O)Nc2ccc([N+](=O)[O-])cc2OC)cc1
T/C (dose: 25.0 mg/kg/injection, schedule: Q01DX009 (ip), vehicle: Klucel (hydroxypropylcellulose) (HPC)): 96 % of control
T/C (dose: 50.0 mg/kg/injection, schedule: Q01DX009 (ip), vehicle: Klucel (hydroxypropylcellulose) (HPC)): 101 % of control
T/C [13]: 93 % of control and 100 % of control

COc1cc([N+](=O)[O-])c(Cl)cc1NS(=O)(=O)c1ccccc1
T/C (dose: 100.0 mg/kg/injection, schedule: Q01DX009 (ip), vehicle: saline with Tween-80): 100 % of control
T/C (dose: 100.0 mg/kg/injection, schedule: Q04DX003 (ip), vehicle: saline with Tween-80): 97 % of control
T/C (dose: 133.0 mg/kg/injection, schedule: Q04DX003 (ip), vehicle: saline with Tween-80): 95 % of control and 89 % of control
T/C (dose: 200.0 mg/kg/injection, schedule: Q01DX009 (ip), vehicle: saline with Tween-80): 103 % of control
T/C (dose: 300.0 mg/kg/injection, schedule: Q04DX003 (ip), vehicle: saline with Tween-80): 95 % of control and 92 % of control
T/C (dose: 400.0 mg/kg/injection, schedule: Q01DX009 (ip), vehicle: saline with Tween-80): 89 % of control
T/C (dose: 400.0 mg/kg/injection, schedule: Q04DX003 (ip), vehicle: saline with Tween-80): 95 % of control

O=c1[nH]c(SCc2ccccc2[N+](=O)[O-])nc2nc[nH]c12
T/C [13]: 90 % of control
T/C [7]: 98 % of control
T/C (dose: 100.0 mg/kg/injection, schedule: Q04DX002 (ip), vehicle: saline): 94 % of control
T/C [14]: 90 % of control
T/C [8]: 94 % of control
T/C (dose: 200.0 mg/kg/injection, schedule: Q04DX002 (ip), vehicle: saline): 97 % of control
T/C [15]: 93 % of control
T/C [9]: 97 % of control
T/C (dose: 400.0 mg/kg/injection, schedule: Q04DX002 (ip), vehicle: saline): 97 % of control

O=S(=O)([O-])NC1CCCCC1.O=S(=O)([O-])NC1CCCCC1.[Hg+2].[Hg+2].[Hg+2].[O-2].[O-2]
T/C (dose: 0.5 mg/kg/injection, schedule: Q01DX009 (ip), vehicle: saline with Tween-80): 100 % of control
T/C (dose: 0.5 mg/kg/injection, schedule: Q04DX003 (ip), vehicle: saline sonified): 97 % of control
T/C (dose: 1.0 mg/kg/injection, schedule: Q01DX009 (ip), vehicle: saline with Tween-80): 94 % of control
T/C (dose: 1.0 mg/kg/injection, schedule: Q04DX003 (ip), vehicle: saline sonified): 101 % of control
T/C (dose: 2.0 mg/kg/injection, schedule: Q01DX009 (ip), vehicle: saline with Tween-80): 96 % of control
T/C (dose: 2.0 mg/kg/injection, schedule: Q04DX003 (ip), vehicle: saline sonified): 94 % of control
T/C (dose: 4.0 mg/kg/injection, schedule: Q01DX009 (ip), vehicle: saline with Tween-80): 93 % of control

O=C1C(Br)=CC(=NCl)C=C1Br
T/C (dose: 6.25 mg/kg/injection, schedule: Q01DX009 (ip), vehicle: DMSO): 87 % of control
T/C (dose: 12.5 mg/kg/injection, schedule: Q01DX009 (ip), vehicle: DMSO): 94 % of control
T/C (dose: 12.5 mg/kg/injection, schedule: Q04DX002 (ip), vehicle: DMSO): 103 % of control
T/C (dose: 25.0 mg/kg/injection, schedule: Q04DX002 (ip), vehicle: DMSO): 95 % of control

Cc1cc(C)c(NC(=O)NC2CCCCC2)cc1C
T/C [7]: 105 % of control
T/C [8]: 94 % of control
T/C [9]: 94 % of control

CC(=O)c1c(O)cc(C)c(Cl)c1C
T/C [13]: 94 % of control
T/C [14]: 100 % of control
T/C [15]: 103 % of control

O=S(OCCCl)OCCCl
T/C (dose: 75.0 mg/kg/injection, schedule: Q04DX003 (ip), vehicle: Klucel (hydroxypropylcellulose) (HPC)): 91 % of control
T/C (dose: 150.0 mg/kg/injection, schedule: Q04DX003 (ip), vehicle: Klucel (hydroxypropylcellulose) (HPC)): 102 % of control
T/C (dose: 300.0 mg/kg/injection, schedule: Q04DX003 (ip), vehicle: Klucel (hydroxypropylcellulose) (HPC)): 98 % of control
